# Assay results reported in ChEMBL document CHEMBL1201862, “PubChem BioAssay data set” (2004).
#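 In this assay, cells in 96-well plates receive the compound at five concentrations for 48 hours. Endpoints are linearly interpolated between the surrounding concentrations. Here, GI50 denotes the concentration required for 50% inhibition of growth.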 Activity calls are given as the source filed them. No stated cut-off is given here; in the data, active = GI50 up to about 1.1 µM and inactive = higher.
# Tests used:
# Assay in all cases: inhibition of tumour cell growth, NCI panel, 48 h
# NCI-H522 = test system: NCI-H522
# SN12C = test system: SN12C
# PC-3 = test system: PC-3
# K562 = test system: K562
# MOLT-4 = test system: MOLT-4
# HOP-92 = test system: HOP-92
# T47D = test system: T47D
# U-251 = test system: U-251
# SF-295 = test system: SF-295
# LOX IMVI = test system: LOX IMVI
# DU-145 = test system: DU-145
# HCT-15 = test system: HCT-15
# MCF7 = test system: MCF7
# HOP-62 = test system: HOP-62
# HCC 2998 = test system: HCC 2998
# SF-268 = test system: SF-268
# HT-29 = test system: HT-29
# A549 = test system: A549
# RXF 393 = test system: RXF 393
# TK-10 = test system: TK-10
# SK-OV-3 = test system: SK-OV-3
# MDA-MB-231 = test system: MDA-MB-231
# HL-60 = test system: HL-60
# UACC-257 = test system: UACC-257
# OVCAR-8 = test system: OVCAR-8
# NCI-H460 = test system: NCI-H460
# OVCAR-4 = test system: OVCAR-4
# SNB-75 = test system: SNB-75
# EKVX = test system: EKVX
# A498 = test system: A498
# M14 = test system: M14
# NCI-H23 = test system: NCI-H23
# SF-539 = test system: SF-539
# Malme-3M = test system: Malme-3M
# KM12 = test system: KM12
# BT-549 = test system: BT-549
# 786-0 = test system: 786-0
# IGROV-1 = test system: IGROV-1
# SW-620 = test system: SW-620
# HCT-116 = test system: HCT-116
# NCI-H226 = test system: NCI-H226
# Hs-578T = test system: Hs-578T
# OVCAR-5 = test system: OVCAR-5
# MDA-N = test system: MDA-N
# CCRF-CEM = test system: CCRF-CEM
# UO-31 = test system: UO-31
# COLO 205 = test system: COLO 205
# MDA-MB-435 = test system: MDA-MB-435
# SR = test system: SR
# NCI/ADR-RES = test system: NCI/ADR-RES
# SNB-19 = test system: SNB-19
# SK-MEL-5 = test system: SK-MEL-5
# CAKI-1 = test system: CAKI-1
# SK-MEL-28 = test system: SK-MEL-28
# RPMI-8226 = test system: RPMI-8226
# OVCAR-3 = test system: OVCAR-3
# ACHN = test system: ACHN
# UACC-62 = test system: UACC-62
# SK-MEL-2 = test system: SK-MEL-2
# XF498 = test system: XF498
# LXFL 529 = test system: LXFL 529
# DMS-273 = test system: DMS-273
# DLD-1 = test system: DLD-1
# M19-MEL = test system: M19-MEL
# DMS-114 = test system: DMS-114
structure (smiles),measurement,setting,value
CC(=O)NC1=CC(=O)c2cc(C)cc(O)c2C1=O,GI50,NCI-H522,8.83 µM (inactive)
same,GI50,SN12C,5.09 µM (inactive)
same,GI50,PC-3,12.5 µM (inactive)
same,GI50,K562,3.74 µM (inactive)
same,GI50,MOLT-4,4.85 µM (inactive)
same,GI50,HOP-92,8.73 µM (inactive)
same,GI50,T47D,14.5 µM (inactive)
same,GI50,U-251,9.33 µM (inactive)
same,GI50,SF-295,19.2 µM (inactive)
same,GI50,LOX IMVI,1.53 µM (inactive)
same,GI50,DU-145,5.82 µM (inactive)
same,GI50,HCT-15,2.88 µM
same,GI50,MCF7,2.39 µM (inactive)
same,GI50,HOP-62,17.9 µM (inactive)
same,GI50,HCC 2998,2.03 µM (inactive)
same,GI50,SF-268,9.33 µM (inactive)
same,GI50,HT-29,16.9 µM (inactive)
same,GI50,A549,7.5 µM (inactive)
same,GI50,RXF 393,12.5 µM (inactive)
same,GI50,TK-10,21 µM (inactive)
same,GI50,SK-OV-3,> 63.2 µM (inactive)
same,GI50,MDA-MB-231,7.19 µM (inactive)
same,GI50,HL-60,1.88 µM (inactive)
same,GI50,UACC-257,1.85 µM (inactive)
same,GI50,OVCAR-8,2.44 µM (inactive)
same,GI50,NCI-H460,14.9 µM (inactive)
same,GI50,OVCAR-4,8.49 µM (inactive)
same,GI50,SNB-75,18.7 µM (inactive)
same,GI50,EKVX,17.2 µM (inactive)
same,GI50,A498,11 µM (inactive)
same,GI50,M14,1.75 µM (inactive)
same,GI50,NCI-H23,1.72 µM (inactive)
same,GI50,SF-539,6.84 µM (inactive)
same,GI50,Malme-3M,1.9 µM (inactive)
same,GI50,KM12,9.84 µM (inactive)
same,GI50,BT-549,7.06 µM (inactive)
same,GI50,786-0,13.7 µM (inactive)
same,GI50,IGROV-1,11.8 µM (inactive)
same,GI50,SW-620,3.41 µM (inactive)
same,GI50,HCT-116,5.51 µM (inactive)
same,GI50,NCI-H226,19.8 µM (inactive)
same,GI50,Hs-578T,31.8 µM (inactive)
same,GI50,OVCAR-5,12.5 µM (inactive)
same,GI50,MDA-N,1.53 µM (inactive)
same,GI50,CCRF-CEM,4.47 µM (inactive)
same,GI50,UO-31,7.59 µM (inactive)
same,GI50,COLO 205,5.5 µM (inactive)
same,GI50,MDA-MB-435,0.721 µM (active)
same,GI50,SR,9.1 µM (inactive)
same,GI50,NCI/ADR-RES,5.77 µM (inactive)
same,GI50,SNB-19,28.1 µM (inactive)
same,GI50,SK-MEL-5,1.14 µM (inactive)
same,GI50,CAKI-1,17.8 µM (inactive)
same,GI50,SK-MEL-28,0.822 µM (active)
same,GI50,RPMI-8226,2.92 µM (inactive)
same,GI50,OVCAR-3,2.65 µM (inactive)
same,GI50,ACHN,9.66 µM (inactive)
same,GI50,UACC-62,2.02 µM (inactive)
same,GI50,SK-MEL-2,4.72 µM (inactive)
COc1ccccc1-c1cc(O)c2cc3c(cc2n1)OCO3,GI50,SN12C,45.2 µM (inactive)
same,GI50,K562,8.65 µM (inactive)
same,GI50,MOLT-4,23.2 µM (inactive)
same,GI50,U-251,> 100 µM (inactive)
same,GI50,XF498,21.9 µM (inactive)
same,GI50,LOX IMVI,52.4 µM (inactive)
same,GI50,HCT-15,12.3 µM
same,GI50,HOP-62,14.3 µM (inactive)
same,GI50,HCC 2998,40.1 µM (inactive)
same,GI50,HT-29,28.4 µM (inactive)
same,GI50,A549,35.6 µM (inactive)
same,GI50,LXFL 529,48.9 µM (inactive)
same,GI50,TK-10,> 100 µM (inactive)
same,GI50,HL-60,19.5 µM (inactive)
same,GI50,UACC-257,80.9 µM (inactive)
same,GI50,OVCAR-8,28.3 µM (inactive)
same,GI50,NCI-H460,30.3 µM (inactive)
same,GI50,OVCAR-4,25.5 µM (inactive)
same,GI50,SNB-75,22.1 µM (inactive)
same,GI50,EKVX,> 100 µM (inactive)
same,GI50,A498,11.9 µM (inactive)
same,GI50,DMS-273,19.6 µM (inactive)
same,GI50,NCI-H23,54.6 µM (inactive)
same,GI50,SF-539,25.1 µM (inactive)
same,GI50,Malme-3M,6.82 µM (inactive)
same,GI50,DLD-1,40.2 µM (inactive)
same,GI50,786-0,31.9 µM (inactive)
same,GI50,IGROV-1,35.2 µM (inactive)
same,GI50,SW-620,17.7 µM (inactive)
same,GI50,HCT-116,28.6 µM (inactive)
same,GI50,CCRF-CEM,18.7 µM (inactive)
same,GI50,UO-31,65.2 µM (inactive)
same,GI50,COLO 205,17.2 µM (inactive)
same,GI50,SR,29.3 µM (inactive)
same,GI50,SNB-19,45.3 µM (inactive)
same,GI50,SK-MEL-5,5.19 µM (inactive)
same,GI50,SK-MEL-28,> 100 µM (inactive)
same,GI50,RPMI-8226,38.5 µM (inactive)
same,GI50,ACHN,83.8 µM (inactive)
same,GI50,UACC-62,31.6 µM (inactive)
same,GI50,M19-MEL,32.4 µM (inactive)
same,GI50,SK-MEL-2,40.8 µM (inactive)
Cn1nc(-c2ccccc2NC(=O)C(F)(F)F)c(=O)n(C)c1=S,GI50,NCI-H522,19.3 µM (inactive)
same,GI50,SN12C,42.3 µM (inactive)
same,GI50,K562,15.9 µM (inactive)
same,GI50,MOLT-4,22.6 µM (inactive)
same,GI50,DMS-114,14 µM (inactive)
same,GI50,HOP-92,15.2 µM (inactive)
same,GI50,U-251,27 µM (inactive)
same,GI50,XF498,18.9 µM (inactive)
same,GI50,SF-295,58.2 µM (inactive)
same,GI50,LOX IMVI,29.9 µM (inactive)
same,GI50,HOP-62,69.7 µM (inactive)
same,GI50,HCC 2998,46.1 µM (inactive)
same,GI50,SF-268,25.8 µM (inactive)
same,GI50,HT-29,25.8 µM (inactive)
same,GI50,A549,50.5 µM (inactive)
same,GI50,LXFL 529,21.7 µM (inactive)
same,GI50,RXF 393,39.9 µM (inactive)
same,GI50,TK-10,32.3 µM (inactive)
same,GI50,SK-OV-3,> 100 µM (inactive)
same,GI50,OVCAR-8,23.9 µM (inactive)
same,GI50,NCI-H460,23.5 µM (inactive)
same,GI50,OVCAR-4,19.9 µM (inactive)
same,GI50,SNB-75,5.89 µM (inactive)
same,GI50,EKVX,31.3 µM (inactive)
same,GI50,M14,19.8 µM (inactive)
same,GI50,DMS-273,24.4 µM (inactive)
same,GI50,NCI-H23,29.2 µM (inactive)
same,GI50,SF-539,29.4 µM (inactive)
same,GI50,Malme-3M,37.8 µM (inactive)
same,GI50,DLD-1,> 100 µM (inactive)
same,GI50,KM12,25.7 µM (inactive)
same,GI50,786-0,61.9 µM (inactive)
same,GI50,IGROV-1,63.2 µM (inactive)
same,GI50,SW-620,34.5 µM (inactive)
same,GI50,HCT-116,38.1 µM (inactive)
same,GI50,NCI-H226,38.5 µM (inactive)
same,GI50,OVCAR-5,69.3 µM (inactive)
same,GI50,CCRF-CEM,32.6 µM (inactive)
same,GI50,UO-31,21.7 µM (inactive)
same,GI50,COLO 205,> 10 µM (inactive)
same,GI50,SR,18.1 µM (inactive)
same,GI50,SNB-19,38.8 µM (inactive)
same,GI50,SK-MEL-5,> 100 µM (inactive)
same,GI50,CAKI-1,33.6 µM (inactive)
same,GI50,SK-MEL-28,12 µM (inactive)
same,GI50,OVCAR-3,18.5 µM (inactive)
same,GI50,ACHN,24.5 µM (inactive)
same,GI50,UACC-62,> 10 µM (inactive)
same,GI50,M19-MEL,18.9 µM (inactive)
same,GI50,SK-MEL-2,26.7 µM (inactive)
